The target of one experiment is full-length human PHD3 (Homo sapiens (Human), UniProt Q9H6Z9). Nature of the experiment: TR-FRET assay for PHD enzymes, PHD3. It counts as biochemical. From the text: Recombinant human PHD3 protein (molecular weight 31.1 kDa) was purchased from Active Motif (Carlsbad, CA, USA). It was expressed in E. coli as the full-length protein (NCBI accession number NP_071356.1) with an N-terminal 6-His tag (catalog #81033, Lot #24417001).

A further experiment addresses full-length human PHD1 (Homo sapiens (Human), UniProt Q96KS0). Nature of the experiment: TR-FRET assay for PHD enzymes, PHD1. The note with it: TR-FRET, 15 nM PHD1, 1 μM 2-OG. It counts as biochemical. From the text:
PHD1 was expressed in a baculovirus expression system as the full-length protein (NCBI accession number NP_542770.2) with an N-terminal FLAG tag (molecular weight 44.9 kDa).

Another experiment deals with full-length human PHD2 (Homo sapiens (Human), UniProt Q9GZT9). Kind of experiment: TR-FRET assay for PHD enzymes, PHD2. As to conditions: read-out: PHD2 IC50; TR-FRET, 5 nM PHD2, 1 μM 2-OG.
full-length human PHD2, sequence (Q9GZT9 whole entry): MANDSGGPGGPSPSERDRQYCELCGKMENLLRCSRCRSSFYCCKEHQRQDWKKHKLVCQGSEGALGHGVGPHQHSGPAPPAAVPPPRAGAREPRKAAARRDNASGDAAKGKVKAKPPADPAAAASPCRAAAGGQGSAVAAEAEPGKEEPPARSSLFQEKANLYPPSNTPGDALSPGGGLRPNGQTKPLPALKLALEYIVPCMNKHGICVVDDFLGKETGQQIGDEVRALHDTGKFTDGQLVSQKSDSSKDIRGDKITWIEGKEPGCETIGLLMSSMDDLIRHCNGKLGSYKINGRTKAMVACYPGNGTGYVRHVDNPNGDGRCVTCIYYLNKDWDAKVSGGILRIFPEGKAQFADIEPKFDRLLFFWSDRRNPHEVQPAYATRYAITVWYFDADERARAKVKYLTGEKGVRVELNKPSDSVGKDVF

pIC50: −log10 of the molar value. Where two headings read alike, the source gives them in different places. Some results are limits rather than exact numbers.

full-length human PHD3, sequence (Q9H6Z9 whole entry): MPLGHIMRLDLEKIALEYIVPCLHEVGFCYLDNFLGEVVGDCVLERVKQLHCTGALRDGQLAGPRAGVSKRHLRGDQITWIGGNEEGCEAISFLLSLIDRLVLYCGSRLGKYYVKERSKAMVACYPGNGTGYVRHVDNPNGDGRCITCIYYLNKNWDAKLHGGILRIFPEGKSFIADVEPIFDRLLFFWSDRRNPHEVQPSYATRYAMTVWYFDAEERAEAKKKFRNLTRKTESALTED
full-length human PHD1, sequence (Q96KS0 whole entry): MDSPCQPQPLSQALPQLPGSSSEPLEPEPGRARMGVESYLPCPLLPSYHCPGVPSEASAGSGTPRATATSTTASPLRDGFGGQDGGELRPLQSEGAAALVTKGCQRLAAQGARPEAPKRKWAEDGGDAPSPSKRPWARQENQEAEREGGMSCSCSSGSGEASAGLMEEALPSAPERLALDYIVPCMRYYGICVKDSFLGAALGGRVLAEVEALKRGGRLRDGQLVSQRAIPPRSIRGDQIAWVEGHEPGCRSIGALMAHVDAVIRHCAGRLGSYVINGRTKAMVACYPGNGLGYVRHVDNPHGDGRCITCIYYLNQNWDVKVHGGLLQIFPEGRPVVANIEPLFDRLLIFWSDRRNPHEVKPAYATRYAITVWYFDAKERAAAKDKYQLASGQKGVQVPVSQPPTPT
Excerpt for full-length human PHD2: Time-resolved fluorescence resonance energy transfer (TR-FRET) assay was utilized to determine the enzymatic half maximal inhibitory concentration (IC50) value of PHD inhibitors against the full-length human prolyl-4-hydroxylase domain (PHD) enzymes, PHD1, PHD2, and PHD3. The TR-FRET assay was developed based on the specific binding of hydroxylated HIF-1α peptide with the complex formed by VHL, EloB and EloC (VBC), to generate a fluorescent signal. Terbium (Tb)-Donor (monoclonal antibody anti-6His-Tb-cryptate Gold) and D2-acceptor (streptavidin [SA]-D2) of TR-FRET are linked to the VBC complex and to HIF-1α peptide, respectively. The VBC complex binds specifically to the HIF-1α peptide when it is hydroxylated, allowing energy transfer from TR-FRET donor to acceptor (FIG. 1). […] The plates were incubated for 30 minutes at room temperature without rotation. […] TR-FRET assays were performed in triplicate at each concentration of compound and the assays were repeated independently three times.

The pIC50 is the IC50 on a negative log10 scale, so that one unit is a factor of ten. In the case of `Cc1c(-c2ccc3cnccc3c2)cnc(C(=O)NCC(=O)O)c1O` [Compound 3, (3-Hydroxy-5-(isoquinolin-6-yl)-4-methylpicolinoyl)glycine], the pIC50 was over 7.00 at full-length human PHD3 (TR-FRET, 35 nM PHD3, 1 μM 2-OG); over 7.00 against full-length human PHD1; over 7.00 on full-length human PHD2.

In the case of `Cc1ccc2cc(-c3cnc(C(=O)NCC(=O)O)c(O)c3C)ccc2n1` [Compound 5, (3-Hydroxy-4-methyl-5-(2-methylquinolin-6-yl)picolinoyl)glycine], the pIC50 is over 7.00 on full-length human PHD3 (TR-FRET, 35 nM PHD3, 1 μM 2-OG); over 7.00 against full-length human PHD1; over 7.00 at full-length human PHD2.

Consider `Cc1c(-c2cnc(-c3ccccc3)s2)cnc(C(=O)NCC(=O)O)c1O` [Compound 7, (3-Hydroxy-4-methyl-5-(2-phenylthiazol-5-yl)picolinoyl)glycine], for which the negative logarithm of the IC50 (pIC50) on full-length human PHD3 (TR-FRET, 35 nM PHD3, 1 μM 2-OG) was over 7.00; against full-length human PHD1 it was over 7.00; on full-length human PHD2, over 7.00.

With `Cc1c(-c2ccc(C(F)(F)F)nc2)cnc(C(=O)NCC(=O)O)c1O` [Compound 9, (5-Hydroxy-4-methyl-6′-(trifluoromethyl)-[3,3′-bipyridine]-6-carbonyl)glycine], the pIC50 at full-length human PHD3 (TR-FRET, 35 nM PHD3, 1 μM 2-OG) is over 7.00; on full-length human PHD1 it was over 7.00; at full-length human PHD2, over 7.00.

On to `Cc1c(-c2cccnc2)cnc(C(=O)NCC(=O)O)c1O` [Compound 10, (5-Hydroxy-4-methyl-[3,3′-bipyridine]-6-carbonyl)glycine], for which the pIC50 is over 7.00 on full-length human PHD3 (TR-FRET, 35 nM PHD3, 1 μM 2-OG); over 7.00 on full-length human PHD1; over 7.00 on full-length human PHD2.

In the case of `Cc1c(-c2cnn(-c3ccccn3)c2)cnc(C(=O)NCC(=O)O)c1O` [Compound 18, (3-Hydroxy-4-methyl-5-(1-(pyridin-2-yl)-1H-pyrazol-4-yl)picolinoyl)glycine], the pIC50 is over 7.00 at full-length human PHD3 (TR-FRET, 35 nM PHD3, 1 μM 2-OG); over 7.00 on full-length human PHD1; over 7.00 at full-length human PHD2.

As to `Cc1c(-c2cnn(-c3ccc(F)cc3)c2)cnc(C(=O)NCC(=O)O)c1O` [Compound 19, (5-(1-(4-Fluorophenyl)-1H-pyrazol-4-yl)-3-hydroxy-4-methylpicolinoyl)glycine], the negative logarithm of the IC50 (pIC50) against full-length human PHD3 (TR-FRET, 35 nM PHD3, 1 μM 2-OG) was over 7.00; against full-length human PHD1, over 7.00; at full-length human PHD2 it was over 7.00.

Consider `Cc1c(-c2cnn(C(C)C)c2)cnc(C(=O)NCC(=O)O)c1O` [Compound 20, (3-Hydroxy-5-(1-isopropyl-1H-pyrazol-4-yl)-4-methylpicolinoyl)glycine], for which the negative logarithm of the IC50 (pIC50) against full-length human PHD3 (TR-FRET, 35 nM PHD3, 1 μM 2-OG) is over 7.00; at full-length human PHD1, over 7.00; at full-length human PHD2, over 7.00.

On to `Cc1c(-c2cnn(C3CCOCC3)c2)cnc(C(=O)NCC(=O)O)c1O` [Compound 21, (3-Hydroxy-4-methyl-5-(1-(tetrahydro-2H-pyran-4-yl)-1H-pyrazol-4-yl)picolinoyl)glycine], for which the pIC50 against full-length human PHD3 (TR-FRET, 35 nM PHD3, 1 μM 2-OG) was over 7.00; at full-length human PHD1 it was over 7.00; on full-length human PHD2, over 7.00.

`Cc1c(-c2cnn(CC(C)C)c2)cnc(C(=O)NCC(=O)O)c1O` [Compound 22, (3-Hydroxy-5-(1-isobutyl-1H-pyrazol-4-yl)-4-methylpicolinoyl)glycine]: the pIC50 was over 7.00 against full-length human PHD3 (TR-FRET, 35 nM PHD3, 1 μM 2-OG); over 7.00 against full-length human PHD1; over 7.00 on full-length human PHD2.

For the compound `Cc1nc(C(=O)NCC(=O)O)c(O)c(C)c1-c1cnn(-c2ccccc2)c1` [Compound 25, (3-Hydroxy-4,6-dimethyl-5-(1-phenyl-1H-pyrazol-4-yl)picolinoyl)glycine], the negative logarithm of the IC50 (pIC50) on full-length human PHD3 (TR-FRET, 35 nM PHD3, 1 μM 2-OG) is over 7.00; against full-length human PHD1 it was over 7.00; on full-length human PHD2 it was over 7.00.

As to `Cc1c(-c2cnc(-c3ccccc3)o2)cnc(C(=O)NCC(=O)O)c1O` [Compound 26, (3-hydroxy-4-methyl-5-(2-phenyloxazol-5-yl)picolinoyl)glycine], the negative-log IC50 (pIC50) against full-length human PHD3 (TR-FRET, 35 nM PHD3, 1 μM 2-OG) is over 7.00; at full-length human PHD1 it was over 7.00; at full-length human PHD2, over 7.00.

On to `Cc1ccc(-c2cnc(C(=O)NCC(=O)O)c(O)c2C)cn1` [Compound 27, (5-hydroxy-4,6′-dimethyl-[3,3′-bipyridine]-6-carbonyl)glycine], for which the pIC50 against full-length human PHD3 was 6.00 to 7.00; on full-length human PHD1 it was over 7.00; at full-length human PHD2, over 7.00.

For `Cc1c(-c2cnc3ccccc3c2)cnc(C(=O)NCC(=O)O)c1O` [Compound 28], the pIC50 was over 7.00 on full-length human PHD3 (TR-FRET, 35 nM PHD3, 1 μM 2-OG); over 7.00 against full-length human PHD1; over 7.00 at full-length human PHD2.

As to `Cc1c(-c2cccc(Cl)c2)cnc(C(=O)NCC(=O)O)c1O` [Compound 32, (5-(3-chlorophenyl)-3-hydroxy-4-methylpicolinoyl)glycine], the pIC50 at full-length human PHD3 (TR-FRET, 35 nM PHD3, 1 μM 2-OG) is over 7.00; at full-length human PHD1, over 7.00; at full-length human PHD2 it was over 7.00.

Regarding `Cc1c(-c2ccc3ccccc3c2)cnc(C(=O)NCC(=O)O)c1O` [Compound 33, (3-hydroxy-4-methyl-5-(naphthalen-2-yl)picolinoyl)glycine], the pIC50 against full-length human PHD3 (TR-FRET, 35 nM PHD3, 1 μM 2-OG) is over 7.00; at full-length human PHD1 it was over 7.00; at full-length human PHD2, over 7.00.

In the case of `Cc1c(-c2cc(Cl)cc(Cl)c2)cnc(C(=O)NCC(=O)O)c1O` [Compound 36, (5-(3,5-dichlorophenyl)-3-hydroxy-4-methylpicolinoyl)glycine], the pIC50 against full-length human PHD3 (TR-FRET, 35 nM PHD3, 1 μM 2-OG) is over 7.00; at full-length human PHD1, over 7.00; at full-length human PHD2 it was over 7.00.

Regarding `Cc1nc(-c2ccccc2)sc1-c1cnc(C(=O)NCC(=O)O)c(O)c1C` [Compound 37, (3-hydroxy-4-methyl-5-(4-methyl-2-phenylthiazol-5-yl)picolinoyl)glycine], the pIC50 was over 7.00 against full-length human PHD3 (TR-FRET, 35 nM PHD3, 1 μM 2-OG); over 7.00 against full-length human PHD1; over 7.00 at full-length human PHD2.

On to `Cc1nn(-c2ccc(F)cc2)cc1-c1cnc(C(=O)NCC(=O)O)c(O)c1C` [Compound 38, (5-(1-(4-fluorophenyl)-3-methyl-1H-pyrazol-4-yl)-3-hydroxy-4-methylpicolinoyl)glycine], for which the pIC50 on full-length human PHD3 (TR-FRET, 35 nM PHD3, 1 μM 2-OG) was over 7.00; at full-length human PHD1, over 7.00; on full-length human PHD2 it was over 7.00.

For `Cc1nn(-c2cccc(F)c2)cc1-c1cnc(C(=O)NCC(=O)O)c(O)c1C` [Compound 39, (5-(1-(3-fluorophenyl)-3-methyl-1H-pyrazol-4-yl)-3-hydroxy-4-methylpicolinoyl)glycine], the negative logarithm of the IC50 (pIC50) was over 7.00 against full-length human PHD3 (TR-FRET, 35 nM PHD3, 1 μM 2-OG); over 7.00 against full-length human PHD1; over 7.00 at full-length human PHD2.

For the compound `Cc1c(-c2cn(-c3ccc(F)cc3)nn2)cnc(C(=O)NCC(=O)O)c1O` [Compound 41, (5-(1-(4-fluorophenyl)-1H-1,2,3-triazol-4-yl)-3-hydroxy-4-methylpicolinoyl)glycine], the negative-log IC50 (pIC50) against full-length human PHD3 (TR-FRET, 35 nM PHD3, 1 μM 2-OG) was over 7.00; on full-length human PHD1, over 7.00; at full-length human PHD2 it was over 7.00.

As for `Cc1c(-c2cn(CCc3ccc(Cl)cc3)nn2)cnc(C(=O)NCC(=O)O)c1O` [Compound 42, (5-(1-(4-chlorophenethyl)-1H-1,2,3-triazol-4-yl)-3-hydroxy-4-methylpicolinoyl)glycine], the negative logarithm of the IC50 (pIC50) was over 7.00 on full-length human PHD3 (TR-FRET, 35 nM PHD3, 1 μM 2-OG); over 7.00 at full-length human PHD1; over 7.00 on full-length human PHD2.

Consider `Cc1c(-c2cn(CCCc3ccc(Cl)cc3)nn2)cnc(C(=O)NCC(=O)O)c1O` [Compound 43, (5-(1-(3-(4-chlorophenyl)propyl)-1H-1,2,3-triazol-4-yl)-3-hydroxy-4-methylpicolinoyl)glycine], for which the negative logarithm of the IC50 (pIC50) at full-length human PHD3 (TR-FRET, 35 nM PHD3, 1 μM 2-OG) was over 7.00; on full-length human PHD1, over 7.00; on full-length human PHD2, over 7.00.

As for `Cc1c(-c2cn(-c3ccccc3)nn2)cnc(C(=O)NCC(=O)O)c1O` [Compound 44, (3-hydroxy-4-methyl-5-(1-phenyl-1H-1,2,3-triazol-4-yl)picolinoyl)glycine], the negative logarithm of the IC50 (pIC50) at full-length human PHD3 (TR-FRET, 35 nM PHD3, 1 μM 2-OG) was over 7.00; against full-length human PHD1 it was over 7.00; on full-length human PHD2, over 7.00.

For the origin of these results see patent publication US20230295110A1, “PHD INHIBITOR COMPOUNDS, COMPOSITIONS, AND METHODS OF USE” (Akebia Therapeutics, Inc., priority 2020, published 2023).
